From article PMC12514245, “Impaired migration and lung invasion of human melanoma by a novel small molecule targeting the transmembrane domain of death receptor p75^NTR” (EMBO Molecular Medicine, 2025)
Values joined by “and” are separate entries in the source; they are usually repeats but may differ in a detail not shown here. Equal entries are not always repeated.

Key:
[1] = target: T1, fascin/p75^NTR interaction (Homo sapiens, UniProt P08138); experiment: Co-immunoprecipitation of fascin with p75NTR in A875 cells; format: cell-based; conditions: 1 μM; NGF 100 ng/ml
T1 construct: endogenous in cells; host or cells: A875-NT (and A875 sh-p75NTR knock-down control)
T1 sequence (P08138 29-427): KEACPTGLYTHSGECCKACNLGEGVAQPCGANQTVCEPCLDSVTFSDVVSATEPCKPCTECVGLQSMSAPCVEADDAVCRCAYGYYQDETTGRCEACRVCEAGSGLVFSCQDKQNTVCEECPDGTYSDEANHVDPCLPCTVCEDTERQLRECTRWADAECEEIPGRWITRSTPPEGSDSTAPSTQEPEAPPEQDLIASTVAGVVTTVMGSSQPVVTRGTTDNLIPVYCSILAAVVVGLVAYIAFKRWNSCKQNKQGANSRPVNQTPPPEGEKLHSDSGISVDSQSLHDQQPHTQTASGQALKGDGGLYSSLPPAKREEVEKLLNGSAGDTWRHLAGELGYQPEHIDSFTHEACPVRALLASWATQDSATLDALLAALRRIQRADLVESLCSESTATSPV
Procedure: For co-immunoprecipitation analysis of p75^NTR/fascin interactions, A875 sh-p75^NTR and A875-NT cells were plated in a 10 cm tissue culture dish at a confluency of 3 × 10^6 cells/dish in normal growth media. Twenty-four hours after plating, the cells were treated with 1 μM 4A22 and NGF (100 ng/ml) for 12 h prior to harvest and lysis in lysis buffer (50 mM Tris/HCl pH 7.5, 1 mM EDTA, 270 mM Sucrose, 1% (v/v) Triton X-100, 0.1% (v/v) 2-mercaptoethanol and 60 mM n-Octyl-β-D glucopyranoside) containing protease inhibitor cocktail. The cellular extracts were then centrifuged at 4 °C top speed on a benchtop centrifuge for 1 min and the supernatant was collected. For immunoprecipitation, A875 cell extracts were incubated for 16 h at 4 °C on a rotating wheel with 0.8 μg of anti-p75^NTR antibody (ANT-007, Alomone) and then incubated with Sepharose protein-G beads (GE Healthcare). The beads were collected by brief centrifugation (2 min, 2500 rpm, 4 °C), washed three times with 1 ml of Wash Buffer (with composition same as the lysis buffer). After the last wash, pelleted beads were aspirated off the wash buffer followed by addition of Laemmli sample buffer and analysis by SDS–PAGE followed by Western Blot using anti-fascin antibody (MA5-11483, Invitrogen).

[2] = test system: A875 NT cells; experiment: Filopodia per cell (phalloidin staining), A875 NT; format: cell-based, human; conditions: for Filopodia per cell, mean of the well: EXP1 NT; for Filopodia per cell, mean of experiment: EXP1-EXP3; for Filopodia per cell, mean of three experiments: mean of EXP1-3
Procedure: For assessment of actin filaments, A875 cells were plated on glass coverslips in 24-well plate at a confluency of 3 × 10^4 cells/well. One day after plating, the cells were treated with 1 μM or 5 μM Np75-4A22 and NGF (100 ng/ml) or PBS for 24 h. Cells were fixed in 4% paraformaldehyde, permeabilized in 0.1% Triton-X-100, stained with Phalloidin-iFluor 488 (Abcam) at 1:2000 dilution and DAPI for 1 h. Coverslips were mounted and visualized in a laser confocal microscope.

[3] = 1 uM 4A22 with 100 ng/ml NGF, A875 NT
[4] = 5 uM 4A22 with 100 ng/ml NGF, A875 NT

## Cc1cccc(-c2cncc(Nc3ccc(Br)c(Cl)c3Cl)n2)c1C [Np75-4A22]
[1]
  NGF-stimulated fascin/p75NTR interaction: completely suppressed the effect of NGF
[2]; 1 uM 4A22 + 100 ng/ml NGF
  Filopodia per cell, mean of the well: 24.0741 and 41.2222 and 33.1667 and 30.2857
[2]; 1 uM 4A22, A875 NT
  Filopodia per cell, mean of experiment: 30.1580 and 35.6954 and 33.9792
  Filopodia per cell, mean of three experiments: 33.2775
  Filopodia per cell, mean of well: 25.1429 and 30.1667 and 33.5 and 37.8333 and 34.4167
[2]; 1 uM 4A22, A875 NT, per image of a well
  Filopodia per cell (Filopodia / cell), single image: 35
[2]; 1 uM 4A22
  Filopodia per cell, mean of the well: 33.2292 and 40 and 23.375 and 24.0278
[2]; [3]
  Filopodia per cell, mean of experiment: 32.1872 and 28.1825 and 34.5833
  Filopodia per cell, mean of three experiments: 31.6510
  Filopodia per cell, mean of well: 24.6905 and 26.2143 and 30.7143 and 34.6667 and 32.8333 and 35 and 35.8333
[2]; 5 uM 4A22, A875 NT
  Filopodia per cell, mean of experiment: 31.8244 and 33.2924 and 31.8750
  Filopodia per cell, mean of three experiments: 32.3306
  Filopodia per cell, mean of well: 30.0714 and 40.9286 and 30.3571 and 31.8125 and 34.9167 and 27.4167 and 31.1667 and 34
[2]; 5 uM 4A22
  Filopodia per cell, mean of the well: 26.1667 and 28.75 and 43.1667 and 29.2143
[2]; [4]
  Filopodia per cell, mean of experiment: 28.5179 and 33.2679 and 34.0625
  Filopodia per cell, mean of three experiments: 31.9494
  Filopodia per cell, mean of well: 33.2976 and 34 and 40.1786 and 25.5952 and 29.75 and 31.9167 and 35.9167 and 38.6667
[2]; 1 or 5 μM
  filopodia per cell, compound alone: no effects per se
[2]; 1 or 5 μM, NGF 100 ng/ml
  NGF-induced filopodia per cell: completely abolished the effects of NGF
